Results taken from patent US20240228481A1, “NOVEL SULFONAMIDE SERIES OF QR2 INHIBITORS TO TACKLE OXIDATIVE STRESS AND COGNITIVE DECLINE” (CARMEL HAIFA UNIVERSITY ECONOMIC CORPORATION LTD., priority 2021, published 2024).
Several values for one entry are separate records, joined by “and”; a condition that tells them apart may be missing. Equal values may be shown once.

Tests used:
in vitro = conditions: human
Method: (§5) THLE-2 (CRL-2706™) were grown in the BEGM Bullet Kit (CC-3170) from Lonza. Besides the additives contained in the kit, the medium was further supplemented with 5 ng/mL EGF (Sigma), 70 ng/mL phosphoethanolamine (Sigma) and 10% FBS (Biological Industries). The plates for the THLE-2 needed to be pre-coated with a mixture of 0.01 mg/mL fibronectin, 0.05 mg/mL of PureCol™ EZ Gel Solution (Sigma) and 0.01 mg/mL of BSA dissolved in BEBM medium (Lonza). The coating medium was aspirated before seeding.
(§6) THLE-2 cells were exposed to the compounds in a 9-point, 2-fold dilution dose response series with a 100 μM as upper limit, for 72 h. Following the 72 h of exposure to the test compounds, cell viability was determined by measuring the concentration of cellular ATP (CellTiter Glo, Promega). The luminescence signal was measured on a Pherastar FS multi-mode plate reader (BMG Labtech). Each data point was tested in a triplicate.
(§7) First, toxicity was assessed in an ATP depletion assay, using THLE-2 cells following a 72 h exposure to a dose response of each of the tested compounds.

QR1 (NQO1) [1] = target: T1, QR1 (NQO1) (Homo sapiens, UniProt P15559); assay: Selectivity assay with QR1 in place of QR2, fluorescence readout; type: biochemical
T1 construct: purchased Sigma-Aldrich
T1 sequence (P15559 whole entry): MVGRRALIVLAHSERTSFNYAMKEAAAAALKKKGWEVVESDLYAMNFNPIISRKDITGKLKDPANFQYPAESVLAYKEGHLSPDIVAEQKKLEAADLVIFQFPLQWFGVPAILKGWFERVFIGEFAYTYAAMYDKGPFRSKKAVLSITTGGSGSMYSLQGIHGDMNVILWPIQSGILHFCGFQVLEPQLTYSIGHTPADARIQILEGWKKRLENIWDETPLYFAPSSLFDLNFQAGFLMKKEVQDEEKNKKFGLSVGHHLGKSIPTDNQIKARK
Method: (§1) The enzymatic activity of QR2 (10 nM) was measured using menadione (both Sigma-Aldrich) as substrate and dihydrobenzylnicotamide (BNAH; Tocris) as co-substrate (Boutin et al., 2005). The reaction was performed in 50 mM Tris HCl, 150 mM NaCl 0.01% Tween-20 pH=8.5 (Sigma-Aldrich) at room temperature. Briefly, 3 μL of menadione alone (200 μM) or a mixture of menadione and QR2 (200 μM of menadione and 10 nM of QR2) were dispensed in 1536-well black Nunc plates (Thermo-Fisher) using a Multidrop™ Combi Reagent Dispenser (Thermo-Fisher) and pre-incubated with compounds for 10 min. BNAH (200 μM) was then added (3 μL) to the reaction using a BioNex Solutions BNX 1536 plate washer and the plates were incubated for another 10 min. […] The initial HTS was done with approximately 200,000 compounds at a single concentration of 5 μM. The chemical libraries used were Selleck Chemicals Bioactives, the Drug-like set from Enamine, HitFinder collection from Maybridge, Spectrum Collection from Microsource, Lopac from Sigma-Aldrich and the diversity sets from ChemDiv and ChemBridge. Initial “hit” compounds were defined as causing >30% reduction of enzyme activity. Compounds suspected to be fluorescent were re-assayed in an absorbance assay at 350 nm using the same reaction but in a higher volume (100 μL), in a transparent plate (Greiner Bio-One). “Hit” compounds resulting from both the fluorescence and absorbance assay were tested in a dose-response, and median inhibition concentration (IC50) values were determined. In parallel, the same dose response was used in a selectivity assay where QR2 enzyme was replaced by QR1 (also known as—NQO1, 10 nM; Sigma-Aldrich).
(§2) In order to establish a varied, flexible and chemically amenable starting point from which to develop such inhibitors, the inventors ran a standardized QR2 assay (see methods) against ˜200,000 compounds, from a varied assortment of chemical libraries. […] Compounds that replicated the initial hit result were then assayed similarly, against NQO1, to evaluate compound specificity (FIG. 1B). From the HTS, a series of compounds containing a sulfonamide central linker, with an amine on one side and a heterocycle on the other, were identified and selected for SAR development (FIG. 1C).

QR2 [2] = target: T2, QR2 (Homo sapiens, UniProt P16083); assay: QR2 enzymatic activity assay (menadione/BNAH), fluorescence readout; type: biochemical; set-up: purchased Sigma-Aldrich
T2 sequence (P16083 1-231): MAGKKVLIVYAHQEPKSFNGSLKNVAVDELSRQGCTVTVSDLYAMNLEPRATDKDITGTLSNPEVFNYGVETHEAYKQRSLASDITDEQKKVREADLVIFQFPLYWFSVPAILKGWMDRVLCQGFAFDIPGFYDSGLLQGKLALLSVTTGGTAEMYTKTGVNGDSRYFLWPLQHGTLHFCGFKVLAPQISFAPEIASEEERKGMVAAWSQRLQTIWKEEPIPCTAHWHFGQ
Method: (§3) The enzymatic activity of QR2 (10 nM) was measured using menadione (both Sigma-Aldrich) as substrate and dihydrobenzylnicotamide (BNAH; Tocris) as co-substrate (Boutin et al., 2005). The reaction was performed in 50 mM Tris HCl, 150 mM NaCl 0.01% Tween-20 pH=8.5 (Sigma-Aldrich) at room temperature. Briefly, 3 μL of menadione alone (200 μM) or a mixture of menadione and QR2 (200 μM of menadione and 10 nM of QR2) were dispensed in 1536-well black Nunc plates (Thermo-Fisher) using a Multidrop™ Combi Reagent Dispenser (Thermo-Fisher) and pre-incubated with compounds for 10 min. BNAH (200 μM) was then added (3 μL) to the reaction using a BioNex Solutions BNX 1536 plate washer and the plates were incubated for another 10 min. […] The initial HTS was done with approximately 200,000 compounds at a single concentration of 5 μM. The chemical libraries used were Selleck Chemicals Bioactives, the Drug-like set from Enamine, HitFinder collection from Maybridge, Spectrum Collection from Microsource, Lopac from Sigma-Aldrich and the diversity sets from ChemDiv and ChemBridge. Initial “hit” compounds were defined as causing >30% reduction of enzyme activity. […] “Hit” compounds resulting from both the fluorescence and absorbance assay were tested in a dose-response, and median inhibition concentration (IC50) values were determined. In parallel, the same dose response was used in a selectivity assay where QR2 enzyme was replaced by QR1 (also known as—NQO1, 10 nM; Sigma-Aldrich).
(§4) In order to establish a varied, flexible and chemically amenable starting point from which to develop such inhibitors, the inventors ran a standardized QR2 assay (see methods) against ˜200,000 compounds, from a varied assortment of chemical libraries.

QR1 (NQO1) [3] = target: T1, QR1 (NQO1); assay: Selectivity assay with QR1 in place of QR2, absorbance readout; type: biochemical
Method: as §1, §2

QR2 [4] = target: T2, QR2; assay: QR2 enzymatic activity assay (menadione/BNAH), absorbance readout at 350 nm; type: biochemical; set-up: purchased Sigma-Aldrich
Method: as §3, §4

HEK293T cells = assay: XTT cell viability assay; type: cell-based; conditions: 3 h incubation, 20 nM-20 μM
Method: HEK293FT cells were cultured with penicillin-streptomycin antibiotics in Invitrogen DMEM (Thermo Fisher Scientific) with 10% fetal bovine serum and L-glutamine and grown to 80-90% confluence in 100 mm plates, while being passaged every 2-3 days. For the XTT assay (Biological Industries), cells were then collected, centrifuged, and resuspended in fresh minimum essential medium, and seeded at 50,000 cells/well in 96-well, poly-L-lysine-coated Nunc black, clear flat-bottomed plates (Thermo Fisher Scientific). The next day, the cells were treated with increasing doses of QR2 inhibitors or vehicle for 3 h, and the XTT assay was then carried out as according to the manufacturer's instructions.

QR2 [5] = target: T2, QR2; assay: Cellular thermal shift assay (CETSA) of QR2 in HEK293T cells; type: cell-based; set-up: endogenous in cells; host or cells: HEK293T
Method: The CETSA assay was performed as described (Miettinen and Björklund, 2014) with some modifications. Briefly, HEK293T cells were trypsinized (Biological Industries), washed in PBS (Sigma-Aldrich), and then suspended in PBS containing protease inhibitor cocktail (Roche). The suspended cells were then divided into two Eppendorf tubes and were treated with either: a compound or DMSO (Sigma-Aldrich) for 1 h at 37° C. under shaking. Following treatment, each sample was divided into PCR tubes (100 μL/tube) and subjected to a temperature gradient (ranging from 63 to 80° C.) for 3 minutes. Cell lysates were obtained by 3-cycles of freeze-thaw using liquid nitrogen and a thermal block set to 25° C. Samples were then centrifuged at 15,000 rpm at 4° C. for 20 min and were subsequently analyzed by western blot targeting QR2 (1:100, Santa Cruz; sc-271665). The isothermal dose response fingerprint (ITDRF) experiments were done using a constant temperature of 73° C. Band intensities were normalized to the highest concentration and superoxide dismutase 1 (SOD1) levels (1:200, Santa Cruz; sc-17767). Analysis of the results were performed according to Jafari et al., (2014) using GraphPad Prism software.
To establish direct target engagement, as well as cell membrane permeability, a cellular thermal shift assay (CETSA) was carried out (see methods), using the leading compounds YB-537, YB-800, and YB-808. Following 1 h preincubation with 5 μM of each of the compounds, or vehicle, thermal aggregation curves (Tagg) of QR2 expressed in HEK293T were measured in increasing temperatures. […] Based on the Tagg curves, the inventors selected 73° C. for isothermal dose-response fingerprint (IDTRF) experiments (FIG. 2B).

THLE-2 cells = assay: Cell toxicity assay (ATP depletion, CellTiter Glo); conditions: 72 h incubation, CellTiter Glo
Method: as §5, §6, §7

[6] = Cell toxicity assay (ATP depletion, CellTiter Glo); conditions: human
Method: as §5, §6, §7

Row | SMILES | IC50 at 72 h (in vitro) | IC50 (QR1 (NQO1) [1]) | IC50 (QR2 [2]) | IC50 (QR1 (NQO1) [3]) | IC50 (QR2 [4]) | toxicity in XTT assay (HEK293T cells) | thermal stability of QR2 (thermal aggregation curve) versus vehicle (QR2 [5]; 5 μM, 1 h preincubation) | EC50 (QR2 [5]; CETSA at 73° C., read-out: EC50 of QR2 stabilization (isothermal dose-response fingerprint)) | median lethal dose (LD50) in THLE cells (THLE-2 cells) | IC50 at 72 h [6]
1 | Cc1ccc(-c2cn3cccc(C)c3n2)cc1S(=O)(=O)N1CCCC1 [YB-808] |  | > 9.99 µM | 0.01 µM | > 9.99 µM |  | no toxicity | shifts of thermal stability | 0.013 µM | 59.7 µM and 59.704 µM | 59.7 µM
2 | Cc1cccn2cc(-c3cccc(S(=O)(=O)N(C)C)c3)nc12 [PCM-0213804] | > 100 µM | > 9.99 µM | 0.19 µM | > 9.99 µM | 0.02 µM |  |  |  |  | 
3 | Cc1cc(-c2ccc(C)c(S(=O)(=O)NCc3cccnc3)c2)on1 [PCM-0184959] | 249 µM | > 9.9 µM | 2.72 µM | > 9.99 µM | 2.16 µM |  |  |  |  | 

Now from value to compound, other results behind:

Row | IC50 at 72 h (in vitro) | IC50 (QR1 (NQO1) [1]) | IC50 (QR2 [2]) | IC50 (QR1 (NQO1) [3]) | IC50 (QR2 [4]) | SMILES | toxicity in XTT assay (HEK293T cells) | thermal stability of QR2 (thermal aggregation curve) versus vehicle (QR2 [5]; 5 μM, 1 h preincubation) | EC50 (QR2 [5]; CETSA at 73° C., read-out: EC50 of QR2 stabilization (isothermal dose-response fingerprint)) | median lethal dose (LD50) in THLE cells (THLE-2 cells) | IC50 at 72 h [6]
4 | 215 µM | > 9.99 µM | 2.31 µM | > 9.99 µM | 1.71 µM | Cc1cc(-c2ccc(C)c(S(=O)(=O)N(C)C)c2)on1 [PCM-0212389] |  |  |  |  | 
5 | 64.1 µM | 3.33 µM | 0.01 µM | 4.22 µM | 0.01 µM | Cc1cccn2cc(-c3cccc(S(=O)(=O)N4CCN(C(=O)c5ccco5)CC4)c3)nc12 [PCM-0213792] |  |  |  |  | 
